In paper PMC6155302, “Anti-Cancer Activity of Resveratrol and Derivatives Produced by Grapevine Cell Suspensions in a 14 L Stirred Bioreactor” (Molecules : A Journal of Synthetic Chemistry and Natural …, 2017):
Like-named read-outs stand apart in the source and are kept apart here.

Key:
HDF cells = assay: MTT cell viability assay, healthy human dermal fibroblasts; type: cell-based; details: for Cell viability inhibition, HDF (result in words): 10–100 μM, 6, 24 and 48 h; for IC50: Homo sapiens, HDF, 24 h
Description: (§1) Three cell types were studied. The HT-144 and SKMEL-28 cell lines derived from human melanoma and were obtained from the American Tissue Culture Collection (ATCC). They were grown in Mc Coy’s 5a modified and minimal essential medium (MEM) respectively, supplemented with 10% (v/v) fetal bovine serum (FBS) and 1% (v/v) antibiotic (penicillin, streptomycin) at 37 °C in a humidified atmosphere of 5% CO2. Human dermal fibroblasts (HDF) were isolated from skin biopsies of healthy subjects. Briefly, the hypodermis was mechanically removed and explants were cut in 1 mm^2 pieces. Skin fragments were then cultivated in Dulbecco’s minimal essential medium (DMEM) supplemented with 20% FBS, 1% antibiotic and 1% fungizone at 37 °C in a humidified atmosphere of 5% CO2. The medium was changed every two days. After 4 weeks of cultures, fibroblasts have covered all the surface of the culture dishes and were trypsined. Cells were grown in DMEM containing 10% FBS and 1% antibiotic at 37 °C in a humidified atmosphere of 5% CO2. Subcultures 3 to 9 were used in this study.
(§2) The three cell types were seeded into 96-well plates (0.32 cm^2, 5500 cells in 200 μL medium par well). After 24 h of culture, the cells were treated in triplicate wells with different bio-produced stilbenes and synthetic resveratrol (≥99%, Sigma-Aldrich, Saint-Quentin Fallavier, France) amounts and treatment times. Compounds were dissolved in ethanol at a 5 × 10^−2 M final concentration and stored at −20 °C. Compounds were diluted in culture media, with or without FBS, to the desired final concentration. All control and treated cells received a maximal volume of 0.1% (v/v) of ethanol.
(§3) Cell viability was tested by the MTT [3-(4,5-dimethyl thiazol-2yl)-2,5-diphenyltetrazolium bromide] assay (Sigma-Aldrich). After MTT addition (0.5 mg/mL), the plates were incubated for 3 h at 37 °C in a humidified atmosphere of 5% CO2. At the end of the incubation period, the medium was removed and the converted dye was solubilized with dimethyl sulfoxide (DMSO). Absorbance of the converted dye was measured at a wavelength of 560 nm using a plate reader Tecan F200 Pro (Tecan, Lyon, France). The 50% inhibitory concentration (IC50) for each bio-produced stilbene was defined as the concentration producing 50% decrease in cell growth.

HT-144 cells = assay: MTT cell viability assay, HT-144 melanoma cells; type: cell-based, human; details: for Cell viability inhibition, HT-144 (result in words): 10–100 μM, 6, 24 and 48 h; for IC50: Homo sapiens, HT-144, 24 h
Description: as §1, §2, §3

SKMEL-28 cells = assay: MTT cell viability assay, SKMEL-28 melanoma cells; type: cell-based, human; details: for Cell viability inhibition, SKMEL-28 (result in words): 10–100 μM, 6, 24 and 48 h; for IC50: Homo sapiens, SK-MEL-28, 24 h
Description: as §1, §2, §3

[1] = with FBS (10% FBS), read-out: IC50 HDF with FBS
[2] = without FBS (0% FBS), read-out: IC50 HDF without FBS
[3] = with FBS (10% FBS), read-out: IC50 HT-144 with FBS
[4] = without FBS (0% FBS), read-out: IC50 HT-144 without FBS
[5] = with FBS (10% FBS), read-out: IC50 SKMEL-28 with FBS
[6] = without FBS (0% FBS), read-out: IC50 SKMEL-28 without FBS

| Structure (SMILES) | Cell viability inhibition, HDF (result in words) (HDF cells) | IC50 (HDF cells; [1]) | IC50 (HDF cells; [2]) | Cell viability inhibition, HT-144 (result in words) (HT-144 cells) | IC50 (HT-144 cells; [3]) | IC50 (HT-144 cells; [4]) | Cell viability inhibition, SKMEL-28 (result in words) (SKMEL-28 cells) | IC50 (SKMEL-28 cells; [5]) | IC50 (SKMEL-28 cells; [6]) |
| --- | --- | --- | --- | --- | --- | --- | --- | --- | --- |
| Oc1ccc(C(O)C(Oc2ccc(C=Cc3cc(O)cc(O)c3)cc2)c2cc(O)cc(O)c2)cc1 (stereo not drawn) [Dimer (6)] | significant cell viability inhibition | > 100 µM | 22.2 ± 2.61 µM | significant cell viability inhibition | > 100 µM | 24.9 ± 0.62 µM | significant cell viability inhibition | > 100 µM | 23 ± 0.3 µM |
| Oc1ccc([C@@H]2c3c(O)cc(O)cc3[C@H]3[C@H](c4ccc(O)cc4)c4c(O)cc(O)cc4[C@@H]23)cc1 [Pallidol, pallidol] | – | > 100 µM | > 100 µM | – | > 100 µM | > 100 µM | – | > 100 µM | > 100 µM |
| Oc1ccc(/C=C/c2cc(O)cc(O)c2)cc1 [Trans-resveratrol, trans-resveratrol] | – | > 100 µM | > 100 µM | – | 93.3 ± 7.6 µM | > 100 µM | – | > 100 µM | > 100 µM |
| Oc1ccc(/C=C/c2cc(O)cc(O)c2)cc1 [synthetic resveratrol, trans-resveratrol, reference compound] | dose-dependent decrease in cell growth | – | – | dose-dependent decrease in cell growth | – | – | dose-dependent decrease in cell growth | – | – |
| Oc1ccc(/C=C/c2cc(O)cc3c2[C@@H](c2cc(O)cc(O)c2)[C@H](c2ccc(O)cc2)O3)cc1 [ɛ-viniferin, ε-viniferin] | significant cell viability inhibition | 91.9 ± 11.3 µM | 16.4 ± 1.19 µM | significant cell viability inhibition | 82.3 ± 3.23 µM | 17.58 ± 0.09 µM | significant cell viability inhibition | 86.6 ± 2.59 µM | 15.9 ± 0.44 µM |
